Patent publication US20030144213A1, “Combination therapy of angiotensin converting enzyme inhibitor, side-effect reduced amount of aldosterone antagonist and diuretic for treatment of cardiovascular disease” (G.D. Searle & Co., priority 1996, published 2003)

What was measured:
[1] = test system: myocardial fibrosis in animal models; conditions: cited from earlier work
[2] = test system: hypertensive-rat cohort; conditions: sub-cutaneously; hypertensive rats; cited from earlier work
[3] = test system: patients afflicted with congestive heart failure; conditions: coadministered with an ACE inhibitor; cited from earlier work
[4] = test system: patients with symptomatic heart failure; assay: Spironolactone dose-ranging clinical trial (12 weeks, added to ACE inhibitor, loop diuretic, optional digitalis)
[5] = test system: hypertensive patients; conditions: cited from earlier work

Row | Structure (SMILES) | Myocardial fibrosis [1] | Fibrosis [2] | Patients in whom highly effective [3] | Mean systolic and diastolic blood pressure (standing and supine) ([4]; 25 mg, 50 mg and 75 mg groups, all visits) | Change from baseline in body weight ([4]; 75 mg dose group, Day 9 and Week 4) | Change from baseline in PRA, dose-response ([4]; Day 9, Week 4 and Week 12 (P≦0.001)) | Change from baseline in serum magnesium ([4]; Day 9 and Week 4 (p≦0.048), not at later visits) | Change from baseline in supine pulse, dose response ([4]; Week 4 (p-value=0.045)) | Hematocrit and hemoglobin vs placebo ([4]; Week 12 (p=0.002; 0.005)) | Urinary aldosterone excretion, dose response ([4]; Week 12 vs baseline (p=0.002)) | N-Terminal Atrial Natriuretic Factor (ANF) change ([4]; all active treatments, Day 9, Week 4, Week 12) | Deaths during the drug treatment period ([4]; all doses, 12 weeks) | Change from baseline in serum potassium, dose-response ([4]; all treatment period visits (p<0.001)) | Hyperkalemia adverse event, dose-response of incidence ([4]; p=0.001) | Patients who died within 30 days after the study was completed ([4]; previously at the 50 mg dose) | NYHA Class improvement ([4]; vs placebo, not statistically significant) | Plasma aldosterone despite continued ACE inhibition [5] | Likelihood of hyperkalemia on captopril vs another ACE-I ([4]; background ACE-I)
1 | CC(=O)S[C@@H]1CC2=CC(=O)CC[C@]2(C)[C@H]2CC[C@@]3(C)[C@@H](CC[C@@]34CCC(=O)O4)[C@H]12 [Spironolactone, 17-hydroxy-7α-mercapto-3-oxo-17α-pregn-4-ene-21-carboxylic acid γ-lactone acetate] | prevents myocardial fibrosis in animal models | prevent fibrosis in the hypertensive-rat cohort | 13 of 16 | decreases in mean systolic and diastolic blood pressure | more weight loss than other patients | higher doses of spironolactone associated with greater increases in PRA | statistically significant dose-response | greater decreases in pulse in the supine position at higher doses | lower levels for the active treatment groups | Greater increases were seen at higher doses of spironolactone | decreases from baseline at all treatment visits | No deaths | Higher doses of spironolactone were associated with larger increases in potassium | clear dose-response in term of incidence | Three | trend toward improvement | – | –
2 | C[C@H](CS)C(=O)N1CCC[C@H]1C(=O)O [Captopril, captopril] | – | – | – | – | – | – | – | – | – | – | – | – | – | – | – | – | gradual return of plasma aldosterone to baseline levels | about one-third as likely to develop hyperkalemia
